# From PMC8016998, “Identification of potential therapeutic antimicrobial peptides against Acinetobacter baumannii in a mouse model of pneumonia” (Scientific Reports, 2021)
# No end group written: not given here.
# How the values were obtained:
# [1] = tested on: Acinetobacter baumannii 17,978; type: cell-based; conditions: 17,978, 24 h;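 further: CLSI broth microdilution in 96-well polypropylene plates, MBC taken as lowest concentration giving no growth when clear wells were subcultured on LB agar for 24 h at 37 °C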
# Description: (§2) MBC were determined by extending the MIC procedure in sterilized 96-well polypropylene microtiter plates according to the broth microdilution guidelines of the Clinical and Laboratory Standards Institute with some modification[47]. […] In addition, 10 µL was drawn from each well with no visible turbidity onto LB agar plates and incubated for 24 h at 37 °C. The lowest concentration showing no visible growth on agar subculture was used as the MBC value. All experiments were performed in triplicate.
# [2] = tested on: Acinetobacter baumannii 19,606; type: cell-based; conditions: 19,606, 24 h
# Description: as §2
# MDRAB strain MO91 = type: cell-based, Acinetobacter baumannii; conditions: 24 h
# Description: (§1) All AMPs and TP4 derivatives used in this study were synthesized by Kelowna International Scientific Inc. (Taipei City, Taiwan) with more than 95% purity, and their molecular weights were verified by mass spectrum analysis. MBC were determined by extending the MIC procedure in sterilized 96-well polypropylene microtiter plates according to the broth microdilution guidelines of the Clinical and Laboratory Standards Institute with some modification. Briefly, 5 × 10^5 CFU/mL of bacteria were inoculated in LB medium containing AMPs or antibiotic at final concentrations ranging from 512 to 1 μg/mL (from serial twofold dilutions). After incubation for 24 h at 37 °C, the lowest concentration showing no visible growth was used as the MIC value. In addition, 10 µL was drawn from each well with no visible turbidity onto LB agar plates and incubated for 24 h at 37 °C. The lowest concentration showing no visible growth on agar subculture was used as the MBC value. All experiments were performed in triplicate.
# MDRAB strain BF50 = type: cell-based, Acinetobacter baumannii; conditions: 24 h
# Description: as §1
Compound,MBC [1],MIC [1],MBC [2],MIC [2],MBC (MDRAB strain MO91),MIC (MDRAB strain MO91),MBC (MDRAB strain BF50),MIC (MDRAB strain BF50)
CC[C@H](C)[C@H](NC(=O)[C@H](CO)NC(=O)[C@H](Cc1ccccc1)NC(=O)[C@H](CC(C)C)NC(=O)CNC(=O)CNC(=O)[C@@H](NC(=O)[C@@H](NC(=O)[C@H](Cc1c[nH]cn1)NC(=O)[C@H](Cc1c[nH]cn1)NC(=O)[C@@H](NC(=O)[C@@H](N)Cc1ccccc1)[C@@H](C)CC)[C@@H](C)CC)[C@@H](C)CC)C(=O)NCC(=O)N[C@@H](CCCCN)C(=O)N[C@H](C(=O)N[C@H](C(=O)N[C@@H](Cc1c[nH]cn1)C(=O)N[C@@H](CCCNC(=N)N)C(=O)N[C@@H](CC(C)C)C(=O)N[C@H](C(=O)N[C@@H](CCCNC(=N)N)C(=O)N[C@@H](CCCNC(=N)N)C(=O)N[C@@H](CCCNC(=N)N)C(=O)N[C@@H](CCCNC(=N)N)C(=O)N[C@@H](CCCNC(=N)N)C(=O)O)[C@@H](C)CC)[C@@H](C)CC)[C@@H](C)CC [A12I/A15I],64 µg/mL,64 µg/mL,128 µg/mL,32 µg/mL,128 µg/mL,32 µg/mL,128 µg/mL,64 µg/mL
AAHHIIGGLFSAGKAIHRLIRRRRR [F1A/I2A],32 µg/mL,32 µg/mL,16 µg/mL,16 µg/mL,32 µg/mL,32 µg/mL,32 µg/mL,16 µg/mL
FIAAIIGGLFSAGKAIHRLIRRRRR [H3A/H4A],128 µg/mL,64 µg/mL,64 µg/mL,64 µg/mL,256 µg/mL,64 µg/mL,128 µg/mL,64 µg/mL
FIHHAAGGLFSAGKAIHRLIRRRRR [I5A/I6A],32 µg/mL,32 µg/mL,64 µg/mL,64 µg/mL,128 µg/mL,64 µg/mL,64 µg/mL,32 µg/mL
FIHHIIGGAASAGKAIHRLIRRRRR [L9A/F10A],64 µg/mL,64 µg/mL,128 µg/mL,64 µg/mL,128 µg/mL,128 µg/mL,64 µg/mL,64 µg/mL
FIHHIIGGLFSAGKAAHRLIRRRRR [Peptide I16A],32 µg/mL,16 µg/mL,32 µg/mL,32 µg/mL,32 µg/mL,16 µg/mL,16 µg/mL,16 µg/mL
FIHHIIGGLFSAGKAEHRLIRRRRR [Peptide I16E],> 256 µg/mL,> 256 µg/mL,> 256 µg/mL,> 256 µg/mL,> 256 µg/mL,> 256 µg/mL,> 256 µg/mL,> 256 µg/mL
FIHHIIGGLFSAGKAIHRHHRRRRR [L19H/I20H],32 µg/mL,32 µg/mL,64 µg/mL,64 µg/mL,32 µg/mL,32 µg/mL,32 µg/mL,32 µg/mL
FIHHIIGGLFSAGKAIHSLIHRRRR [R18S/R21H],32 µg/mL,16 µg/mL,32 µg/mL,32 µg/mL,32 µg/mL,32 µg/mL,64 µg/mL,16 µg/mL
FIHHIIGGLFSAGKARHRLIRRRRR [Peptide I16R],128 µg/mL,128 µg/mL,64 µg/mL,64 µg/mL,256 µg/mL,64 µg/mL,128 µg/mL,64 µg/mL
FIHHIIGGLFSVGKHIHRLIRRRRR [A12V/A15H],32 µg/mL,16 µg/mL,32 µg/mL,16 µg/mL,256 µg/mL,16 µg/mL,128 µg/mL,16 µg/mL
